Experimental data: US9981959B2, “Thiazolyl and oxazolyl urea, thiourea, guanidine and cyanoguanidine compounds as TrkA kinase inhibitors” (Array BioPharma Inc., priority 2012, dated 2018)

Assays:
Assay in all cases: KinaseProfiler off-target kinase profiling
Assay type in all cases: biochemical
Conditions in all cases: 10 μM, ATP near Km
Pim-3 = molecular target: T1, Pim-3 (Homo sapiens, UniProt Q86V86)
T1 construct: purchased Millipore, Inc. (KinaseProfiler service)
Procedure, shortened: (§1)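 Percent of control (POC) is reported as the mean of duplicate wells, with compound at 10 μM and ATP set near the Km of each kinase.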

CDK3/cyclinE = molecular target: T2, CDK3/cyclinE (Homo sapiens, UniProt Q00526)
T2 construct: purchased Millipore, Inc. (KinaseProfiler service)
Procedure, shortened: as §1

mTOR/FKBP12 = molecular target: T3, mTOR/FKBP12 (Homo sapiens, UniProt P42345)
T3 construct: purchased Millipore, Inc. (KinaseProfiler service)
Procedure, shortened: as §1

STK33 = molecular target: T4, STK33 (Homo sapiens, UniProt Q9BYT3)
T4 construct: purchased Millipore, Inc. (KinaseProfiler service)
Procedure, shortened: as §1

AKT1 = molecular target: T5, AKT1 (Homo sapiens, UniProt P31749)
T5 construct: purchased Millipore (KinaseProfiler service)
Procedure, shortened: as §1

WNK2 = molecular target: T6, WNK2 (Homo sapiens, UniProt Q9Y3S1)
T6 construct: purchased Millipore, Inc. (KinaseProfiler service)
Procedure, shortened: as §1

NEK3 = molecular target: T7, NEK3 (Homo sapiens, UniProt P51956)
T7 construct: purchased Millipore, Inc. (KinaseProfiler service)
Procedure, shortened: as §1

CAMK2d = molecular target: T8, CAMK2d (Homo sapiens, UniProt Q13557)
T8 construct: purchased Millipore (KinaseProfiler service)
Procedure, shortened: as §1

Txk = molecular target: T9, Txk (Homo sapiens, UniProt P42681)
T9 construct: purchased Millipore, Inc. (KinaseProfiler service)
Procedure, shortened: as §1

SGK2 = molecular target: T10, SGK2 (Homo sapiens, UniProt Q9HBY8)
T10 construct: purchased Millipore, Inc. (KinaseProfiler service)
Procedure, shortened: as §1

ULK3 = molecular target: T11, ULK3 (Homo sapiens, UniProt Q6PHR2)
T11 construct: purchased Millipore, Inc. (KinaseProfiler service)
Procedure, shortened: as §1

MSSK1 = molecular target: T12, MSSK1 (Homo sapiens, UniProt Q9UPE1)
T12 construct: purchased Millipore, Inc. (KinaseProfiler service)
Procedure, shortened: as §1

WNK3 = molecular target: T13, WNK3 (Homo sapiens, UniProt Q9BYP7)
T13 construct: purchased Millipore, Inc. (KinaseProfiler service)
Procedure, shortened: as §1

FGFR1 = molecular target: T14, FGFR1 (Homo sapiens, UniProt P11362)
T14 construct: purchased Millipore, Inc. (KinaseProfiler service)
Procedure, shortened: as §1

MAPKAP-K5 = molecular target: T15, MAPKAP-K5 (Homo sapiens, UniProt Q8IW41)
T15 construct: purchased Millipore, Inc. (KinaseProfiler service)
Procedure, shortened: as §1

LKB1 = molecular target: T16, LKB1 (Homo sapiens, UniProt Q15831)
T16 construct: purchased Millipore, Inc. (KinaseProfiler service)
Procedure, shortened: as §1

CDK7/cyclinH/MAT1 = molecular target: T17, CDK7/cyclinH/MAT1 (Homo sapiens, UniProt P50613)
T17 construct: purchased Millipore, Inc. (KinaseProfiler service)
Procedure, shortened: as §1

EphA4 = molecular target: T18, EphA4 (Homo sapiens, UniProt P54764)
T18 construct: purchased Millipore, Inc. (KinaseProfiler service)
Procedure, shortened: as §1

TBK1 = molecular target: T19, TBK1 (Homo sapiens, UniProt Q9UHD2)
T19 construct: purchased Millipore, Inc. (KinaseProfiler service)
Procedure, shortened: as §1

ALK = molecular target: T20, ALK (Homo sapiens, UniProt Q9UM73)
T20 construct: purchased Millipore (KinaseProfiler service)
Procedure, shortened: as §1

NEK11 = molecular target: T21, NEK11 (Homo sapiens, UniProt Q8NG66)
T21 construct: purchased Millipore, Inc. (KinaseProfiler service)
Procedure, shortened: as §1

CDK1/cyclinB = molecular target: T22, CDK1/cyclinB (Homo sapiens, UniProt P06493)
T22 construct: purchased Millipore (KinaseProfiler service)
Procedure, shortened: as §1

SRPK1 = molecular target: T23, SRPK1 (Homo sapiens, UniProt Q96SB4)
T23 construct: purchased Millipore, Inc. (KinaseProfiler service)
Procedure, shortened: as §1

EphA8 = molecular target: T24, EphA8 (Homo sapiens, UniProt P29322)
T24 construct: purchased Millipore, Inc. (KinaseProfiler service)
Procedure, shortened: as §1

MARK1 = molecular target: T25, MARK1 (Homo sapiens, UniProt Q9P0L2)
T25 construct: purchased Millipore, Inc. (KinaseProfiler service)
Procedure, shortened: as §1

CDK2/cyclinE = molecular target: T26, CDK2/cyclinE (Homo sapiens, UniProt P24941)
T26 construct: purchased Millipore, Inc. (KinaseProfiler service)
Procedure, shortened: as §1

PRK2 = molecular target: T27, PRK2 (Homo sapiens, UniProt Q16513)
T27 construct: purchased Millipore, Inc. (KinaseProfiler service)
Procedure, shortened: as §1

SRC = molecular target: T28, SRC (Homo sapiens, UniProt P12931)
T28 construct: purchased Millipore, Inc. (KinaseProfiler service)
Procedure, shortened: as §1

MRCKbeta = molecular target: T29, MRCKbeta (Homo sapiens, UniProt Q9Y5S2)
T29 construct: purchased Millipore, Inc. (KinaseProfiler service)
Procedure, shortened: as §1

Fyn = molecular target: T30, Fyn (Homo sapiens, UniProt P06241)
T30 construct: purchased Millipore, Inc. (KinaseProfiler service)
Procedure, shortened: as §1

Fgr = molecular target: T31, Fgr (Homo sapiens, UniProt P09769)
T31 construct: purchased Millipore, Inc. (KinaseProfiler service)
Procedure, shortened: as §1

NEK2 = molecular target: T32, NEK2 (Homo sapiens, UniProt P51955)
T32 construct: purchased Millipore, Inc. (KinaseProfiler service)
Procedure, shortened: as §1

PKCbetaI = molecular target: T33, PKCbetaI (Homo sapiens, UniProt P05771)
T33 construct: purchased Millipore, Inc. (KinaseProfiler service)
Procedure, shortened: as §1

CLK2 = molecular target: T34, CLK2 (Homo sapiens, UniProt P49760)
T34 construct: purchased Millipore, Inc. (KinaseProfiler service)
Procedure, shortened: as §1

FGFR4 = molecular target: T35, FGFR4 (Homo sapiens, UniProt P22455)
T35 construct: purchased Millipore, Inc. (KinaseProfiler service)
Procedure, shortened: as §1

TAO3 = molecular target: T36, TAO3 (Homo sapiens, UniProt Q9H2K8)
T36 construct: purchased Millipore, Inc. (KinaseProfiler service)
Procedure, shortened: as §1

Mer = molecular target: T37, Mer (Homo sapiens, UniProt Q12866)
T37 construct: purchased Millipore, Inc. (KinaseProfiler service)
Procedure, shortened: as §1

DRAK1 = molecular target: T38, DRAK1 (Homo sapiens, UniProt Q9UEE5)
T38 construct: purchased Millipore, Inc. (KinaseProfiler service)
Procedure, shortened: as §1

p38alpha = molecular target: T39, p38alpha (Homo sapiens, UniProt Q16539)
T39 construct: purchased Millipore, Inc. (KinaseProfiler service)
Procedure, shortened: as §1

MKK7beta = molecular target: T40, MKK7beta (Homo sapiens, UniProt O14733)
T40 construct: purchased Millipore, Inc. (KinaseProfiler service)
Procedure, shortened: as §1

FAK2 = molecular target: T41, FAK2 (Homo sapiens, UniProt Q14289)
T41 construct: purchased Millipore, Inc. (KinaseProfiler service)
Procedure, shortened: as §1

T12 sequence (Q9UPE1 whole entry): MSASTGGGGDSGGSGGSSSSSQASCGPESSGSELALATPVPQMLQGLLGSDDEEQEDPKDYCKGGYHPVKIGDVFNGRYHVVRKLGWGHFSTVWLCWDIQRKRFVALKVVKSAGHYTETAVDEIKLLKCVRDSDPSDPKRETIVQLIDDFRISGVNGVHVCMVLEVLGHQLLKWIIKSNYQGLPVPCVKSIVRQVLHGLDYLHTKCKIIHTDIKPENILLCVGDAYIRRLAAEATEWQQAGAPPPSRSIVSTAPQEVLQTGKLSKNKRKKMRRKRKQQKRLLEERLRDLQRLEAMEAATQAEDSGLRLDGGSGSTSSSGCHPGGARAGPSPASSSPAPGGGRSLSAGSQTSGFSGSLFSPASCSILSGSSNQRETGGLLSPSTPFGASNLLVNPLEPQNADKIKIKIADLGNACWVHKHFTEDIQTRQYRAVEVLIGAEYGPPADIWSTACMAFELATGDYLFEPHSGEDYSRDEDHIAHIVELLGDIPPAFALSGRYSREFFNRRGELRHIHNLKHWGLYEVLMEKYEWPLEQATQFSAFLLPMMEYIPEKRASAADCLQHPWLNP
T27 sequence (Q16513 whole entry): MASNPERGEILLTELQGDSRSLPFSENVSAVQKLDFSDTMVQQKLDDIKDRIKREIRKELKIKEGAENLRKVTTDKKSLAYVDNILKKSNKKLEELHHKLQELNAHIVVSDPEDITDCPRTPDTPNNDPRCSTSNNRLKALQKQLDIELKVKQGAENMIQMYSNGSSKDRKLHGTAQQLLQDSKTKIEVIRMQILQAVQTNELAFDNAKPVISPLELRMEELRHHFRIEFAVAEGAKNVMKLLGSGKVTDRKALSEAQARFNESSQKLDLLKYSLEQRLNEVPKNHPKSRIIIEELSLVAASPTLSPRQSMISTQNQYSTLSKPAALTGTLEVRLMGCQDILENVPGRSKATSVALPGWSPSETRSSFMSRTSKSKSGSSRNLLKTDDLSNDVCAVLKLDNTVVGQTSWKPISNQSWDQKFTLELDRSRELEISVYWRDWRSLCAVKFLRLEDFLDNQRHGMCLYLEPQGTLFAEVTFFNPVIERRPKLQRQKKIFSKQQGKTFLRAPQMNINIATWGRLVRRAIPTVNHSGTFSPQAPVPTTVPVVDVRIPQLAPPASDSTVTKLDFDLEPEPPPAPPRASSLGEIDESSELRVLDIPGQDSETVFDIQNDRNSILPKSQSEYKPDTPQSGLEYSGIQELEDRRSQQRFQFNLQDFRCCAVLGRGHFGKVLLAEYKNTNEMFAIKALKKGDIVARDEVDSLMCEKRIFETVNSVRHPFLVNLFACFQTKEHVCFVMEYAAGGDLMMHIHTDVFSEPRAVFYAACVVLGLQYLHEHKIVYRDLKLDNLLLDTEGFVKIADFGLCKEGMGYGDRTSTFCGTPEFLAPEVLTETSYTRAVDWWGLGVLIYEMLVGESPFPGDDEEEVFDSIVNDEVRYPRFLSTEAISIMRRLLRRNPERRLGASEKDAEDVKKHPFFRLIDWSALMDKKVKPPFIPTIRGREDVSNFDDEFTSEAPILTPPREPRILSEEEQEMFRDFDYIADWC
T13 sequence (Q9BYP7 whole entry): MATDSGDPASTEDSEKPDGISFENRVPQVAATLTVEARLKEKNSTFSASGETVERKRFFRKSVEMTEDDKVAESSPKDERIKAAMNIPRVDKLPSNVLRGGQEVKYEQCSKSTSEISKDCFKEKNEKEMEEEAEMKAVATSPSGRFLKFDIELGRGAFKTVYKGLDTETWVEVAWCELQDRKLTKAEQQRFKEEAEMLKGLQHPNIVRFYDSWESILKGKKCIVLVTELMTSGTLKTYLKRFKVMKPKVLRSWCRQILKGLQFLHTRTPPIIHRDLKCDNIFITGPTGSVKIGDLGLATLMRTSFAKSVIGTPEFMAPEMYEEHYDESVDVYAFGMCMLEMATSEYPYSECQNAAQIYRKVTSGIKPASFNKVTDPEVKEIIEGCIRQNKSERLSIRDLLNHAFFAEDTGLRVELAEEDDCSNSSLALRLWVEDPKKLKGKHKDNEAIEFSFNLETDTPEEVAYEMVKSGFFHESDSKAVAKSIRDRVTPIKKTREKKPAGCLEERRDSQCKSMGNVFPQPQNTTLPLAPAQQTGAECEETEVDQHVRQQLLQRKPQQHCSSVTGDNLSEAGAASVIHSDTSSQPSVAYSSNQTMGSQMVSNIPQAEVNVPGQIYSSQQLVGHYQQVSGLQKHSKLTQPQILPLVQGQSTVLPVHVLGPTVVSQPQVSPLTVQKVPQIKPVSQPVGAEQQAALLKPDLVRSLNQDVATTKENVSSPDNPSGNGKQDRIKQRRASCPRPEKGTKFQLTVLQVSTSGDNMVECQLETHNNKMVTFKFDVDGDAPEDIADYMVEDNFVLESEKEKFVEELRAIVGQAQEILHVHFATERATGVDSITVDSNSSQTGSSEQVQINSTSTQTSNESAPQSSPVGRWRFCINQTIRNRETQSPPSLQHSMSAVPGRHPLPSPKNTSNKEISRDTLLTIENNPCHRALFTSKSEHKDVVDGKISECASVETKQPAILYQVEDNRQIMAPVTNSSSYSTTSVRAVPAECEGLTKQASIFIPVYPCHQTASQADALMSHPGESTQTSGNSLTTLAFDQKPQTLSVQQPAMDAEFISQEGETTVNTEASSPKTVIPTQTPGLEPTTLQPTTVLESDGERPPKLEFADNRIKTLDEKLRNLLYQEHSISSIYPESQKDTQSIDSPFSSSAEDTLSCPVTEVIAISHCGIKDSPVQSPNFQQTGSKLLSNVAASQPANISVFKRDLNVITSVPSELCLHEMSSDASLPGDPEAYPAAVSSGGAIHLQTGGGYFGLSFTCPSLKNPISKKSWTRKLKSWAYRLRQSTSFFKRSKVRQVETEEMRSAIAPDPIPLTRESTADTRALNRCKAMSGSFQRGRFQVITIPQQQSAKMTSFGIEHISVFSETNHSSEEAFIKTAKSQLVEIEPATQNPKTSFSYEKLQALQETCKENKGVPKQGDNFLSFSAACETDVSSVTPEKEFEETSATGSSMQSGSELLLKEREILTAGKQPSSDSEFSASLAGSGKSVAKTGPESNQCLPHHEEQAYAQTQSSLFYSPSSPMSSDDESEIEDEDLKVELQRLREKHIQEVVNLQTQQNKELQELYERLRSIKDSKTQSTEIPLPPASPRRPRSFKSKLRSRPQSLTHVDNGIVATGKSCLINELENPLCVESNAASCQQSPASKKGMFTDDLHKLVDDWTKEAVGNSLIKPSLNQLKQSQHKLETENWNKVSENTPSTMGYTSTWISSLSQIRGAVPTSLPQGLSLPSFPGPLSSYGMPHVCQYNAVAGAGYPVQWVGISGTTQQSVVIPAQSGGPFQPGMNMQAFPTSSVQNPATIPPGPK
T11 sequence (Q6PHR2 whole entry): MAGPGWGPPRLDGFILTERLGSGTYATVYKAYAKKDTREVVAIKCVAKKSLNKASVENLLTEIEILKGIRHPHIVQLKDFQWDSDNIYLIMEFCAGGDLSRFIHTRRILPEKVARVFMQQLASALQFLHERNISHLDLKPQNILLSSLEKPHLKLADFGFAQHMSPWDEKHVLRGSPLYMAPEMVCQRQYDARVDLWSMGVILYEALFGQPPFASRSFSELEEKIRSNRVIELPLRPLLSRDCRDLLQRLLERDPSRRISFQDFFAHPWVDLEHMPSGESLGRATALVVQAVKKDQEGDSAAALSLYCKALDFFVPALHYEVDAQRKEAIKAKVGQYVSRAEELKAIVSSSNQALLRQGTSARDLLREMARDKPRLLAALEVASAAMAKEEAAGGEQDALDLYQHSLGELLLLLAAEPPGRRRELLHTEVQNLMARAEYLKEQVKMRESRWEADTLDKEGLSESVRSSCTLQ
T35 sequence (P22455 22-802): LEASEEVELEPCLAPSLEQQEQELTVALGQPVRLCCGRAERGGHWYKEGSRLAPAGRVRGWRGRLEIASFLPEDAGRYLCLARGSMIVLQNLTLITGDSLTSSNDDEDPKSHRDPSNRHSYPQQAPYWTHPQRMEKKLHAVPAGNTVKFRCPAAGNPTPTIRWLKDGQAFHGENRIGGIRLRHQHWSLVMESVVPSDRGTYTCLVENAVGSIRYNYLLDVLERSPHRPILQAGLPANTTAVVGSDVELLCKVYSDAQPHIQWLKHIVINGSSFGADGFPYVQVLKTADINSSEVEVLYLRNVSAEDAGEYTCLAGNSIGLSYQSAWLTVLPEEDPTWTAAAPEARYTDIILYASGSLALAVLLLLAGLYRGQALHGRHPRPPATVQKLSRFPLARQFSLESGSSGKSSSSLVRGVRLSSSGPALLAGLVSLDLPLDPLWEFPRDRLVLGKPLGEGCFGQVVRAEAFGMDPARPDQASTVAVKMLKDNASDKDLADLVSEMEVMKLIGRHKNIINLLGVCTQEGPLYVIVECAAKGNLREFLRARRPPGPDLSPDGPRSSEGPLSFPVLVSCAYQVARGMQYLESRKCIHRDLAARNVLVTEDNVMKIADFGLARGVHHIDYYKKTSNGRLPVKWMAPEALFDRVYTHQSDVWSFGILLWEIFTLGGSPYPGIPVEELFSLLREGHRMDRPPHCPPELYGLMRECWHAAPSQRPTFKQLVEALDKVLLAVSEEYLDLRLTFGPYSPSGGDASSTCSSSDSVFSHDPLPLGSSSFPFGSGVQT

Cc1c(-c2cnn(C)c2)nn(-c2ccccc2)c1NC(=O)Nc1sc(C(F)(F)F)nc1-c1ccccc1 [Example 2, 1-(1′,4-dimethyl-1-phenyl-1H,1′H-[3,4′-bipyrazol]-5-yl)-3-(4-phenyl-2-(trifluoromethyl)thiazol-5-yl)urea]
Avg POC (Pim-3): 107.5 POC | Avg POC (CDK3/cyclinE): 105 POC | Avg POC (mTOR/FKBP12): 103 POC | Avg POC (STK33): 120.5 POC | Avg POC (AKT1): 133 POC | Avg POC (WNK2): 115 POC | Avg POC (NEK3): 108.5 POC | Avg POC (CAMK2d): 118 POC | Avg POC (Txk): 163 POC | Avg POC (SGK2): 144.5 POC | Avg POC (ULK3): 90 POC | Avg POC (MSSK1): 132 POC | Avg POC (WNK3): 112.5 POC | Avg POC (FGFR1): 80.5 POC | Avg POC (MAPKAP-K5): 95.5 POC | Avg POC (LKB1): 96.5 POC | Avg POC (CDK7/cyclinH/MAT1): 113 POC | Avg POC (EphA4): 109 POC | Avg POC (TBK1): 100.5 POC | Avg POC (ALK): 108 POC | Avg POC (NEK11): 73.5 POC | Avg POC (CDK1/cyclinB): 106 POC | Avg POC (SRPK1): 114 POC | Avg POC (EphA8): 118.5 POC | Avg POC (MARK1): 107 POC | Avg POC (CDK2/cyclinE): 100 POC | Avg POC (PRK2): 104.5 POC | Avg POC (SRC): 110.5 POC | Avg POC (MRCKbeta): 113 POC | Avg POC (Fyn): 105.5 POC | Avg POC (Fgr): 128 POC | Avg POC (NEK2): 122.5 POC | Avg POC (PKCbetaI): 102 POC | Avg POC (CLK2): 118 POC | Avg POC (FGFR4): 141.5 POC | Avg POC (TAO3): 94 POC | Avg POC (Mer): 105.5 POC | Avg POC (DRAK1): 119 POC | Avg POC (p38alpha): 91 POC | Avg POC (MKK7beta): 143.5 POC | Avg POC (FAK2): 107 POC
